From the supplement of paper PMC10307832

Legend:
Experiment in all cases: relative viability (nuclei count vs DMSO), 5 days (fraction); higher = more cells survive
RAF265 + Linsitinib = compound: Cn1c(Nc2ccc(C(F)(F)F)cc2)nc2cc(Oc3ccnc(-c4ncc(C(F)(F)F)[nH]4)c3)ccc21 [RAF265] + C[C@]1(O)C[C@@H](c2nc(-c3ccc4ccc(-c5ccccc5)nc4c3)c3c(N)nccn32)C1 [Linsitinib] (partner 1 µM)
In short: (§1)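 Lung cancer cell lines were pin-tool dosed in 1536-well plates on the day after seeding, with either a lone drug or a fixed anchor-drug dose plus five library-drug doses (not always all listed) in √10 steps. Nuclei were counted on 4× images after 5 days. Relative viability is the ratio of treated-well to vehicle-well nuclei counts, with each value a median of duplicate plates.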

IPA-3 + Phenformin = compound: C1=CC=C2C(=C1)C=CC(=C2SSC3=C(C=CC4=CC=CC=C43)O)O [IPA-3] + N=C(N)NC(=N)NCCc1ccccc1 [Phenformin] (partner 250 µM)
In short: as §1

IPA-3 + Linsitinib = compound: C1=CC=C2C(=C1)C=CC(=C2SSC3=C(C=CC4=CC=CC=C43)O)O [IPA-3] + C[C@]1(O)C[C@@H](c2nc(-c3ccc4ccc(-c5ccccc5)nc4c3)c3c(N)nccn32)C1 [Linsitinib] (partner 1 µM)
In short: as §1

[1] = compound: Cc1ccc(-n2nc(C(C)(C)C)cc2NC(=O)Nc2ccc(OCCN3CCOCC3)c3ccccc23)cc1 [Doramapimod] + CC(=O)c1c(C)c2cnc(Nc3ccc(N4CCNCC4)cn3)nc2n(C2CCCC2)c1=O [Palbociclib] (partner 0.5 µM)
In short: as §1

Work on UMC-11 yielded a relative viability (RAF265 + Linsitinib; first compound 0.01 µM) of 1, a relative viability (RAF265 + Linsitinib; first compound 0.03162 µM) of 0.993 and a relative viability (RAF265 + Linsitinib; first compound 0.1 µM) of 0.953. The relative viability (RAF265 + Linsitinib; first compound 0.3162 µM) was 0.986, the relative viability (RAF265 + Linsitinib; first compound 1 µM) was 0.973 and the relative viability (IPA-3 + Phenformin; first compound 0.2 µM) was 0.391. It also gave a relative viability (IPA-3 + Phenformin; first compound 0.6325 µM) of 0.336, a relative viability (IPA-3 + Phenformin; first compound 2 µM) of 0.316 and a relative viability (IPA-3 + Phenformin; first compound 6.325 µM) of 0.341. For the same cell line, the relative viability (IPA-3 + Phenformin; first compound 20 µM) was 0.357, the relative viability (IPA-3 + Linsitinib; first compound 0.2 µM) was 1.28 and the relative viability (IPA-3 + Linsitinib; first compound 0.6325 µM) was 0.923. The relative viability (IPA-3 + Linsitinib; first compound 2 µM) was 1.07, the relative viability (IPA-3 + Linsitinib; first compound 6.325 µM) was 1.04 and the relative viability (IPA-3 + Linsitinib; first compound 20 µM) was 1.24. For the same cell line, the relative viability ([1]; first compound 0.02 µM) was 0.342, the relative viability ([1]; first compound 0.06325 µM) was 0.328 and the relative viability ([1]; first compound 0.2 µM) was 0.313. It also gave a relative viability ([1]; first compound 0.6325 µM) of 0.323 and a relative viability ([1]; first compound 2 µM) of 0.308.
